Series [1] in a line: Pharmacokinetic experiment in Beagle dogs (IV and PO). The class given is in vivo. As to conditions: male, dog, plasma. The source says: Polyethylene glycol 400 (batch number: GORKREUT, Saen Chemical Technology (Shanghai) Co., Ltd.); DMSO (batch number: 20200319, GHTECH (Guangdong) Co., Ltd.); and normal saline (batch number: C20052604, Jiangxi Kelun Pharmaceutical Co., Ltd.). An LC-MS instrument (Thermo Fisher Ultimate 3000 UPLC, TSQ QUANTUM ULTRA TSQ Quantum GC).
5 male Beagle dogs with weights being 5 kg to 7 kg, purchased from Beijing Mars Biotechnology Co., Ltd. […]
After the above mixture is given to the dogs through intragastric administration (n=3) or intravenous administration (n=2), about 1 mL of blood is collected from the forelimb or hindlimb vein with a scalp needle, respectively, at 5 min (intravenous administration only), 15 min, 30 min, 1 h, 2 h, 4 h, 6 h, 8 h, 24 h to put into blood collection tubes containing EDTA-K2 anticoagulant; centrifugation is performed for 10 min at 4000 rpm to separate plasma; and then the tubes are stored at −80° C. for testing.
A certain amount of a test sample is accurately weighted and dissolved with DMSO to 2 mg/mL, as a stock solution. The stock solution is diluted to 30000, 10000, 3000, 1000, 300, 100, 50, 30, and 10 ng/mL by using acetonitrile:water (1:1), to obtain standard curve working solutions. 5 μL of the working solution is added to 45 μL of blank canine plasma; and well mixing is performed through vortex, to prepare into standard curve samples equivalent to plasma concentrations of 3000, 1000, 300, 100, 30, 10, 5, 3, and 1 ng/mL. 30 μL of the standard curve sample and the collected plasma sample (plasma collected at 5 min, 15 min, and 30 min of intravenous administration is diluted 5-fold) are added to 150 μL of a propranolol acetonitrile solution (internal standard, 50 ng/mL) to precipitate protein, then 100 μL of water is added to well mix through vortex; centrifugation is performed for 5 min at 4000 rpm; and supernatant is taken for LC-MS analysis. LC-MS detection conditions include the following.
Chromatographic column: Waters ACQUITY™ PREMIER HSS T3, 50*2.1 mm, 1.8 μm.
Mobile phase A: water (0.1% formic acid); mobile phase B: acetonitrile; flow rate: 0.5 mL/min; and gradient elution is shown in Table 3 below.
After LC-MS detection of blood drug concentration, and a non-compartment model of WinNonlin 6.1 software is adopted to calculate pharmacokinetic parameters of beagle dogs after administration.

The subject of series [2] is production of TNFα in U937. Nature of the series: Releasing TNFα from U937 induced by LPS. The conditions noted are these: Homo sapiens, U-937; PMA-differentiated U937, LPS 100 ng/ml, 4 h; read-out: IC50 value that the compound inhibits the production of TNFα. The format is cell-based. The text has this:
Cytokine regulation in human monocytes has shown that the p38 pathway is the key to the biosynthesis of a plurality of pro-inflammatory cytokines including TNFα, IL-1β and IL-6. Therefore, the inhibition of the p38 MAPK pathway is to reduce inflammatory response by reducing the biosynthesis of the pro-inflammatory cytokines. […] This is a reflection of the effect of the compound in the present invention to facilitate reduction of inflammation, which is useful in the treatment of various diseases, including chronic inflammatory diseases, acute inflammatory diseases, or self-inflammatory diseases. The potency and efficacy of the p38 inhibitor in blocking cytokine production are evaluated using a human U937 cell line.
A 1640 medium with an article number being A10491-01, Gibco; penicillin-streptomycin with an article number being 15140-122, Gibco; fetal bovine serum with an article number being 10099-141C, Gibco; PBS with an article number being 10010-031, Gibco; LPS with an article number being L2880, Sigma; PMA with an article number being P1585, Sigma; dimethyl sulfoxide with an article number being D8418-1L, Sigma; and a TNFα kit with an article number being K151QWD-4, MSD.
A 96-well plate with an article number being 3599, Corning; a plate-vibrating device with an article number being QB-9002, QILINBEIER; a centrifuge with an article number being 5810R, Eppendorf; a carbon dioxide incubator with an article number being 371, Thermo; a counter with an article number being C10281, Gibco; a microscope with an article number being CKX41, OLYMPUS; and an MSD plate reader with an article number being 1201 MESO SECTOR 600, MSD.
U937, ATCC with an article number being CRL-1593.2.
About 2 mg of a drug is weighted; a mother solution is prepared to 10 mM (which is calculated by free alkali) by means of DMSO; and the mother solution is diluted 10-fold to 1 mM, and then is successively diluted 4-fold to 250 μM, 62.5 μM, 15.6 μM, 3.9 μM, 0.97 μM, 0.24 μM, and 0.061 μM. The above series of diluted DMSO drugs is diluted 20-fold as working solutions by using media.
At Day 0, 10000/well inoculation is performed, stimulation is performed for 48 h with 20 ng/ml of PMA, and culture is performed at 37° C., 5% CO2. • At Day 2, 1. Supernatant is removed from differentiated U937, cleaning is performed once with PBS, and 96 μl of the 1640 medium is added. • 2. 2 μl of the compound containing (DMSO with a final concentration being 0.1%), and culture is performed for 30 min at 37° C., 5% CO2. • 3. 2 μl of LPS (a final concentration being 100 ng/ml) is added, cells are stimulated, and culture is performed for 4 h at 37° C., 5% CO2. • 4. Centrifugation is performed, supernatant is taken, and content of TNFα in the supernatant is determined through ELISA.
The content of TNFα corresponding to each well is calculated by using a standard curve in the kit.
The compound IC50 is calculated by using a GraphPad nonlinear fitting formula, and for an experimental result, refer to Table 1.

In the next series the target is p38α/MK2 complex (Homo sapiens, UniProt P49137+Q16539). Nature of the series: p38α/MK2 complex kinase screening experiment (IMAP FP). The class given is biochemical. As to conditions: p38α 0.2 nM, MK2 unactive 1 nM, HSP27 substrate 1 μM, ATP 10 μM; read-out: IC50 value that the compound inhibits p38α/MK2 complex. Here is the method:
A certain amount of a drug is weighted and prepared into a 10 mM of mother solution by using DMSO; the mother solution is diluted to 100 μM (100× working solution) in two steps; and then, the solution is diluted 3-fold to 33.33 μM, 11.11 μM, 3.70 μM, 1.23 μM, 0.41 μM, 0.14 μM, 0.046 μM, 0.015 μM, and 0.005 μM, successively. DMSO control is also arranged.
Then, a series of diluted DMSO drugs are diluted 25 folds with 1×IMAP Reaction Buffer as a 4× drug working solution.
10 gradient concentrations and 2 duplicated wells are set to each group of compounds; and a DMSO control group and a negative control group (DMSO, no ATP) are additionally set.
• c), after 1 h of incubation at room temperature, 1× Progressive Binding Solution is added to end the enzymatic reaction; after 30 min of incubation, a BMGPHERASTER FSX multifunctional microplate reader is used to detect a Fluorescence Polarization (FP) signal [FP(Ex485/Em520/Em520 nm)].

The nature of series [3]: Determination of solubility. The format is physicochemical. The conditions noted are these: aqueous buffer, thermodynamic from solid, 37° C. 1 h. The protocol:
About 0.5 mg of a to-be-tested sample in a centrifuge tube is weighted, an appropriate amount of DMSO is added to completely dissolve the sample, and then methanol is added to make up to 1 ml.
(If there are more pH values to be investigated, the preparation method may be deduced by analogy).
3. The prepared control solution and test solution are simultaneously put into a 37° C. water bath and heated for 1 h, after 1 h, the solutions are taken out and cooled to room temperature, and then the solutions are filtered with a 0.22 μm filter membrane for sample injection.
4. The concentration of the sample in the test solution is calculated according to C=(A*(ms/vs))/AS, and experiment results are shown in Table 2.
Note: ms, vs and AS are the weight, volume and peak area of the sample in the control solution, respectively.
A is the peak area of the test solution.

Converted amounts (≈) assume the structure as drawn.

p38α/MK2 complex, sequence (Q16539 whole entry): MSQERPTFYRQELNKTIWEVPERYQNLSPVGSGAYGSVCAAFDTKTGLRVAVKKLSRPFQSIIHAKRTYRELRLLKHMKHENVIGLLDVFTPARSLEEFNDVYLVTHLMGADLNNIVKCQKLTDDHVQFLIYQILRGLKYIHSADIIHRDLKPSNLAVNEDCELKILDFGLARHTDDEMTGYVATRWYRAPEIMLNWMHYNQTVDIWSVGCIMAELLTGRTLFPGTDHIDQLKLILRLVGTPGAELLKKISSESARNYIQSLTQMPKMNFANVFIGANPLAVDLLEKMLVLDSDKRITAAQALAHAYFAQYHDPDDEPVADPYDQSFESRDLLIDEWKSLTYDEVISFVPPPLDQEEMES
p38α/MK2 complex, sequence (P49137 whole entry): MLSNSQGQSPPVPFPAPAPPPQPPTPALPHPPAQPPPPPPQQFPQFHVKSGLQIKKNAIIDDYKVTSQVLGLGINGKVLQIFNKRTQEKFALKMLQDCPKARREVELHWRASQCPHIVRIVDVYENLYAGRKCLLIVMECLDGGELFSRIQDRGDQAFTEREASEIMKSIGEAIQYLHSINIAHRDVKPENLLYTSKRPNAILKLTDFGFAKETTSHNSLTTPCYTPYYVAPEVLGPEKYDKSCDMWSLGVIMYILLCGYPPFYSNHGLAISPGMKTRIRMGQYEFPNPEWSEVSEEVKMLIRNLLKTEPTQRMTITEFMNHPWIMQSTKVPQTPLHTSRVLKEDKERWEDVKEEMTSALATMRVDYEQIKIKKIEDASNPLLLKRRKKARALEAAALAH

Usually AUC(0-t) stands for the area under the concentration-time curve up to a stated or last time point. A high value points to high exposure. By Cmax is commonly meant the peak of the concentration-time curve. In series [1] (IV 1 mg/kg), `Cc1cnc(-n2cccc(C(C)(C)O)c2=O)cc1-n1c(C)cc(OCc2ncc(F)cc2F)c(Cl)c1=O` (racemic) [Embodiment 1, 3″-chloro-4″-((3,5-difluoropyridine-2-yl)methoxy)-3-(2-hydroxypropane-2-yl)-5′,6″-dimethyl-2H,2″H-[1,2′:4′,1″-terpyridine]-2,2″-diketone] had an AUC(0-t) of 2870 ng·h/mL, a Cmax of 1510 ng/mL and a clearance of 6.15 mL/min/kg. Besides, in series [1] (PO 5 mg/kg vs IV 1 mg/kg), the bioavailability is 229%.
Take `Cc1cnc(-n2cccc(C(C)(C)O)c2=O)cc1-n1c(C)cc(OCc2ncc(Br)cc2F)c(Cl)c1=O` [Embodiment 16, 3″-chloro-4″-((3-fluoro-5-bromopyridine-2-yl)methoxy)-3-(2-hydroxypropane-2-yl)-5′,6″-dimethyl-2H,2″H-[1,2′:4′,1″-terpyridine]-2,2″-diketone]: the figures for the IC50 (in series [2]; at p38α/MK2 complex) were 3.31 nM and 3.35 nM, respectively.
On to `Cc1cnc(-n2cccc(C3CCOCC3)c2=O)cc1-n1c(C)cc(OCc2ncc(F)cc2F)c(Cl)c1=O` [Embodiment 40, 3″-chloro-4″-((3,5-difluoropyridine-2-yl)methoxy)-5′,6″-dimethyl-3-(tetrahydro-2H-pyran-4-yl)-2H, 2″H-[1,2′:4′,1″-terpyridine]-2,2″-diketone], for which, on p38α/MK2 complex, the IC50 was 2.85 nM.
On to `Cc1cnc(-n2cccc(C(C)(C)O)c2=O)cc1-n1c(C)cc(OCc2cccc(F)c2F)c(Cl)c1=O` [Embodiment 17, 3″-chloro-4″-((2,3-difluorobenzyl)oxy)-3-(2-hydroxypropane-2-yl)-5′,6″-dimethyl-2H,2″H-[1,2′:4′,1″-terpyridine]-2,2″-diketone], for which the IC50 was 1.73 nM in series [2] and 1.33 nM at p38α/MK2 complex.
On to `Cc1cnc(-n2cccc(C(C)(C)O)c2=O)cc1-n1c(C)cc(OCc2ncc(F)cc2F)c(Cl)c1=O` (single isomer, unassigned) [Comparative example 1A, reference compound], for which the IC50 on p38α/MK2 complex stood at 0.53 nM.
Consider `CCc1cnc(-n2cccc(C(C)(C)O)c2=O)cc1-n1c(C)cc(OCc2ncc(F)cc2F)c(Cl)c1=O` [Embodiment 42, 3″-chloro-5′-ethyl-4″-((3,5-difluoropyridine-2-yl)methoxy)-3-(2-hydroxypropane-2-yl)-6″-methyl-2H,2″H-[1,2′:4′,1″-terpyridine]-2,2″-diketone], for which the IC50 at p38α/MK2 complex came to 3.14 nM.
Broadly, the solubility is the dissolved amount per volume that the medium holds. On to `Cc1cnc(-n2cccc(C(C)(C)O)c2=O)cc1-n1c(C)cc(OCc2ncc(F)cc2F)cc1=O` [Embodiment 2, 4″-((3,5-difluoropyridine-2-yl)methoxy)-3-(2-hydroxypropane-2-yl)-5′,6″-dimethyl-2H,2″H-[1,2′:4′,1″-terpyridine]-2,2″-diketone], for which the solubility at 1 h was 192 µg/mL (≈ 388 µM) in series [3] (pH = 2.0, PBS buffer) and 234 µg/mL (≈ 474 µM) in series [3] (pH = 7.4, PBS buffer).
`Cc1cnc(-n2cccc(C(C)(C)O)c2=O)cc1-n1c(C)cc(OCc2ncccc2F)c(Cl)c1=O` [Embodiment 20, 3″-chloro-4″-((3-fluoropyridine-2-yl)methoxy)-3-(2-hydroxypropane-2-yl)-5′,6″-dimethyl-2H,2″H-[1,2′:4′,1″-terpyridine]-2,2″-diketone]: the IC50 in series [2] came out at 6.86 nM. Moreover, the solubility at 1 h was 769 µg/mL (≈ 1500 µM) in series [3] (pH = 2.0, PBS buffer) and 773 µg/mL (≈ 1510 µM) in series [3] (pH = 7.4, PBS buffer).
`Cc1cnc(-n2cccc(C(C)(C)O)c2=O)cc1-n1c(C)cc(OCc2ncc(F)cc2F)c(Br)c1=O` [Embodiment 41, 3″-bromo-4″-((3,5-difluoropyridine-2-yl)methoxy)-3-(2-hydroxypropane-2-yl)-5′,6″-dimethyl-2H,2″H-[1,2′:4′,1″-terpyridine]-2,2″-diketone]: the IC50 on p38α/MK2 complex worked out at 1.58 nM.
Regarding `CCC(C)(O)c1cccn(-c2cc(-n3c(C)cc(OCc4ncc(F)cc4F)c(Cl)c3=O)c(C)cn2)c1=O` (stereo not shown) [Embodiment 26, 3″-chloro-4″-((3,5-difluoropyridine-2-yl)methoxy)-3-(2-hydroxybutane-2-yl)-5′,6″-dimethyl-2H,2″H-[1,2′:4′,1″-terpyridine]-2,2″-diketone], the results for the IC50 (in series [2]; on p38α/MK2 complex) were 2.84 nM and 2.26 nM, respectively.
For the compound `Cc1cnc(-n2cccc(C(C)(C)O)c2=O)cc1-n1c(C)cc(OCc2ccccn2)c(Cl)c1=O` [Embodiment 3], the IC50 in series [2] stood at 14.7 nM. The solubility at 1 h came to 1290 µg/mL (≈ 2610 µM) in series [3] (pH = 2.0, PBS buffer) and 140 µg/mL (≈ 284 µM) in series [3] (pH = 7.4, PBS buffer).

These data come from patent publication US20240166627A1, “Terpyridinedione compound or salt thereof, and preparation method and application thereof” (SHENZHEN SALUBRIS PHARMACEUTICALS CO., LTD., priority 2021, published 2024).
